Drawing on US10508086B2 (CANCER RESEARCH TECHNOLOGY LIMITED, priority 2014, dated 2019), this text covers IC50 and EC50 for 23 compounds.

The target of experiment [1] is Human Full Length ARH3 (Homo sapiens (Human), UniProt Q9NX46). Put plainly: ARH3 in vitro selectivity assay (TR-FRET). The experiment is classed as biochemical. The conditions noted are these: read-out: ARH3 Biochem IC50. The method, then: ARH3 In vitro selectivity assays were conducted in a total volume of 15 ul in a standard 384 well format. 5 ul of Human Full Length ARH3 (Enzo Life Sciences: ALX-201-292), used at a final reaction concentration of 17.5 nM, was added to 5 ul of Ribosylated PARP substrate (also produced internally by Astra Zeneca) at final reaction concentration of 4.5 nM in assay buffer (50 mM Tris pH7.4, 0.1 mg/ml BSA, 3 mM EDTA, 0.4 mM EGTA, 1 mM DTT, 0.01% Tween 20, 50 mM KCl). The reaction was incubated at room temperature for 30 minutes and then 5 ul detection reagent was added. Detection Reagent consists of 42 nM MAb Anti-6HIS XL665 (CisBio: 61HISXLB) and 2.25 nM Streptavidin Europium Cryptate (CisBio: 610SAKLB), both at 3× working stock concentrations (final concentrations of 14 nM and 0.75 nM respectively), in a detection buffer of 50 mM Tris pH7.4, BSA at 0.1 mg/ml and KF at 100 mM. Following incubation at room temperature for 60 minutes in the dark, TR-FRET signal was measured at Ex 340 and Em 665 and Em 620. A ratio was calculated as Em665/EM620×104 for each well and used to calculate percent inhibition for test compounds.

The target in experiment [2] is PARG in HeLa cell line (Homo sapiens (Human), UniProt Q86W56). The experiment is described as follows: PARG cell assay (nuclear PAR chains after MMS, immunofluorescence). The experiment is classed as cell-based. Particulars: HeLa cells, MMS 50 μg/mL; read-out: PARG Cell IC50 Geomean. In outline: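 HeLa cells pre-dosed 1 h with compound (10-point dose response), then MMS 50 μg/mL for a further hour at 37 °C. Fixed cells immunostained with anti-PAR antibody plus Alexa Fluor 488 secondary and Hoechst. High-content imaging quantified nuclear PAR fluorescence intensity; inhibition maintains PAR chains.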

The target of experiment [3] is Human Full Length PARG (Homo sapiens (Human), UniProt Q86W56). The experiment is described as follows: PARG in vitro enzyme assay (TR-FRET). Format: biochemical. The conditions noted are these: read-out: PARG_EC50_ENZYME. In outline: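 Full-length human PARG ([…]) incubated with ribosylated PARP substrate (4.5 nM) for 10 min at room temperature in Tris pH 7.4 buffer with EDTA, EGTA, DTT, KCl. Detection by TR-FRET using anti-6HIS XL665 (14 nM final) and streptavidin europium cryptate (0.75 nM final) after 60 min; Em665/Em620 ratio converted to percent inhibition.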
(TR-FRET usually uses a lanthanide donor and a delayed reading to cut background.)

For experiment [4], the target named is Human High specific Activity PARP1 (Homo sapiens (Human), UniProt P09874). The experiment is described as follows: PARP1 in vitro selectivity assay (histone PARylation, luminescence). Format: biochemical. The conditions noted are these: read-out: PARP1 Biochem IC50. The method, then: PARP1 In vitro selectivity assays were conducted as a 10 ul reaction volume in a NUNC Maxisorp 384-well assay plate pre-coated in-house with Histones. 5 ul of Human High specific Activity PARP1 (Trevigen: 4668-100-01) was used at a final reaction concentration of 0.02 units/ml in 1×PARP Buffer (Trevigen: 4671-096-02) with 5 ul of 1×PARP cocktail, which is a mixture of 10×PARP Cocktail (Trevigen: 4671-096-03), 10× Activate DNA (Trevigen: 4671-096-06) and 20×PARP Buffer (as above). The reaction was incubated at room temperature for 60 minutes to allow histones on the coated plate to become PARylated. The wells were then washed with PBS/0.1% Triton X100. PARP1 activity was then detected by measuring the extent of PARylation. Firstly, 10 ul of Streptavidin-HRP (Trevigen: 4800-30-06), diluted 1 in 250 in 1×PARG Assay Buffer (Trevigen: 4680-096-02), was added to each well and incubated at room temperature for 60 minutes. Secondly, following another wash with PBS/0.1% Triton X100, Peroxy Glow Reagents A and B (Trevigen: 4675-096-01 and 4675-096-02) were mixed in equal quantities immediately before use and 100 ul was added to each well. Luminescence signal was then measured immediately.
Human High specific Activity PARP1, sequence (P09874 whole entry): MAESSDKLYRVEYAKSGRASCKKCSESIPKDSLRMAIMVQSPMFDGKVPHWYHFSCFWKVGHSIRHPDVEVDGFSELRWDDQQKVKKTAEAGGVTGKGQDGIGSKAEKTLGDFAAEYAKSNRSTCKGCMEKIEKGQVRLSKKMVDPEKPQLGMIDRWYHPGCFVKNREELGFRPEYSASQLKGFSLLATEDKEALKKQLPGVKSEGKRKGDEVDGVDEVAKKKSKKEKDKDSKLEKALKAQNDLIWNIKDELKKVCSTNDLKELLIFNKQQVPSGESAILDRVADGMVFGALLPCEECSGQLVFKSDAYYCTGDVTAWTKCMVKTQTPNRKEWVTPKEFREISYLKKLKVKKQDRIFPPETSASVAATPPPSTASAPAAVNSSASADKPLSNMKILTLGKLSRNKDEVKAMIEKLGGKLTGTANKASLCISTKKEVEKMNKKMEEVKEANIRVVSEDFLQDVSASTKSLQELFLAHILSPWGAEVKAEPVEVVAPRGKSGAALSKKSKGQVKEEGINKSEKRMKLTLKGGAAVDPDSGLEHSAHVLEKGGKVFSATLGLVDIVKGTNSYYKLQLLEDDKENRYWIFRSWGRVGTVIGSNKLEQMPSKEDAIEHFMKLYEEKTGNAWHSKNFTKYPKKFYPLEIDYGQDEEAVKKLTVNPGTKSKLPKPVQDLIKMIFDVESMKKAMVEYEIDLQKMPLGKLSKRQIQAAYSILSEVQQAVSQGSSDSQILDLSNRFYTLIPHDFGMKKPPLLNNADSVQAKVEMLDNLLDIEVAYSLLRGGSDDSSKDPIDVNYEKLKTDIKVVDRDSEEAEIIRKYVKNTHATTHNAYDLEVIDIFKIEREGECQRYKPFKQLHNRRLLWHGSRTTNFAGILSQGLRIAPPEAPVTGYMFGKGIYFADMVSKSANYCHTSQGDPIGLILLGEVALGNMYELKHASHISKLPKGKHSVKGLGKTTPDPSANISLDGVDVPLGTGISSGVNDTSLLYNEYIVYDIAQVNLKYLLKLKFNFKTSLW

Human Full Length ARH3, sequence (Q9NX46 whole entry): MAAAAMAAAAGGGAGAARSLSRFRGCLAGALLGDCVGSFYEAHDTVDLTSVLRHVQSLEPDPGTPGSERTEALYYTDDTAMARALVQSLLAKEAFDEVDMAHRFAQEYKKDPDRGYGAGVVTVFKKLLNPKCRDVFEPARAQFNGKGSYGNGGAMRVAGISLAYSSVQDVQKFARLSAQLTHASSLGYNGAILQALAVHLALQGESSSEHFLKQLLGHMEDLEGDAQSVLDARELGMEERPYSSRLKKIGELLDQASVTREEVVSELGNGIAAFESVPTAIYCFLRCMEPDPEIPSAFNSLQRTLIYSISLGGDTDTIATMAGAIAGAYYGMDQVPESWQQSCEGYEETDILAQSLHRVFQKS
Human Full Length PARG, sequence (Q86W56 whole entry): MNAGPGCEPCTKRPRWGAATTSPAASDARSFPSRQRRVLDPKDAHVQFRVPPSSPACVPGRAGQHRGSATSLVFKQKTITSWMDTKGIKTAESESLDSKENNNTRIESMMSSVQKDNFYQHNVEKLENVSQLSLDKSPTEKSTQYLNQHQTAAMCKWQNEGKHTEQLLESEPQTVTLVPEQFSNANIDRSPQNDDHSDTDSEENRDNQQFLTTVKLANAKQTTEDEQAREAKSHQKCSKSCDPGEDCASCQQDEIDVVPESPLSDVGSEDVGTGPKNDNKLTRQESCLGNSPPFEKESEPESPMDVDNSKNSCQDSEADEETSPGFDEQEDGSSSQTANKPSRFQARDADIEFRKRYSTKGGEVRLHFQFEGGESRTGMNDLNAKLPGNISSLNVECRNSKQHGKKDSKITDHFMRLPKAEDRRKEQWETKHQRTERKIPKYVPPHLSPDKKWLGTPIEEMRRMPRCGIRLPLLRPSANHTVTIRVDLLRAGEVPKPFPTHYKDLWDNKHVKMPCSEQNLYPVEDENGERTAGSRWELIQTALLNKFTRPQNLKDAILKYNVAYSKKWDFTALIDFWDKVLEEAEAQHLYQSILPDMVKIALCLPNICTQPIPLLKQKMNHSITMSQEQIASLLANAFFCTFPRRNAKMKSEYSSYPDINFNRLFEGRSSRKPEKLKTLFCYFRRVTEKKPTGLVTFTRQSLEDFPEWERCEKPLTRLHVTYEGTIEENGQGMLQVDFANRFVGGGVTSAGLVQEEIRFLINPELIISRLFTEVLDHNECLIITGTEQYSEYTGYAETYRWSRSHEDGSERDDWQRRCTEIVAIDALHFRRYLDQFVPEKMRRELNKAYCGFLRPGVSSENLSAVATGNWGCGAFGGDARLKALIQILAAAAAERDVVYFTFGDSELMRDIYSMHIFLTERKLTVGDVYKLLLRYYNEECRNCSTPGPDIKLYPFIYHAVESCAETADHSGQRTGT
PARG in HeLa cell line, sequence (Q86W56 whole entry): as above

The IC50 is the point on the concentration scale where inhibition reaches its midpoint. For the compound `Cc1nnc(-n2cc(Cc3sc(C)nc3C)c3ccc(S(=O)(=O)NC4(C)CC4)cc32)s1` [Example 129, 3-[(2,4-Dimethylthiazol-5-yl)methyl]-N-(1-methylcyclopropyl)-1-(5-methyl-1,3,4-thiadiazol-2-yl)indole-6-sulfonamide], the IC50 in experiment [1] is greater than 16700 nM; in experiment [2], 251 nM; in experiment [4], greater than 150000 nM. In experiment [3], the EC50 is 371 nM.
For the compound `O=c1n(CCF)c2cc(F)c(S(=O)(=O)NC3(CF)CC3)cc2n1-c1nnc(C(F)F)o1` [Example 212, 3-[5-(Difluoromethyl)-1,3,4-oxadiazol-2-yl]-6-fluoro-1-(2-fluoroethyl)-N-[1-(fluoromethyl)cyclopropyl]-2-oxo-benzimidazole-5-sulfonamide], the IC50 in experiment [1] is greater than 150000 nM; in experiment [2], 110 nM. Further, the EC50 in experiment [3] was found to be 129 nM.
For `Cc1nnc(-n2nc(Cc3ccc(F)cc3)c3ccc(S(=O)(=O)NC4(C)CC4)cc32)s1` [Example 146, 3-[(4-Fluorophenyl)methyl]-N-(1-methylcyclopropyl)-1-(5-methyl-1,3,4-thiadiazol-2-yl)indazole-6-sulfonamide], the IC50 in experiment [1] was greater than 16700 nM; in experiment [4] it was greater than 150000 nM. Besides, the EC50 in experiment [3] was 1190 nM.
Taken in the same sequence, the figures for `Cc1nnc(-n2cnc3ccc(S(=O)(=O)NC4(C)CC4)cc32)s1` [Example 119] were greater than 150000 nM, greater than 150000 nM and 1030 nM.
Taken in the same sequence, the figures for `Cc1cc(Cc2nc3ccc(S(=O)(=O)NC4(C)CC4)cc3n2-c2nnc(C)s2)on1` [Example 118] were greater than 150000 nM, greater than 150000 nM and 671 nM.
As to `Cc1ncc(Cn2c(=O)n(-c3nnc(C)s3)c3cc(S(=O)(=O)NC4(C)CC4)ccc32)s1` [Example 83], the half-maximal inhibitory concentration (IC50) was greater than 100000 nM in experiment [1], 127 nM in experiment [2] and greater than 150000 nM in experiment [4]. The EC50 in experiment [3] was determined as 151 nM.
Consider `Cc1nc(C)c(Cn2c(=O)n(-c3nnc(C(F)F)s3)c3cc(S(=O)(=O)NC4(C)CC4)ccc32)s1` [Example 88], for which the results for the IC50 in experiment [1], in experiment [2] and in experiment [4] were greater than 100000 nM, 38 nM and greater than 150000 nM, respectively. Moreover, in experiment [3], the EC50 amounted to 53 nM.
`CCn1c(=O)n(-c2nnc(C(F)F)o2)c2cc(S(=O)(=O)NC3(CF)CC3)c(F)cc21` [Example 200, 3-[5-(Difluoromethyl)-1,3,4-oxadiazol-2-yl]-1-ethyl-6-fluoro-N-[1-(fluoromethyl)cyclopropyl]-2-oxo-benzimidazole-5-sulfonamide]: the results for the IC50 in experiment [1] and in experiment [2] were greater than 150000 nM and 126 nM, respectively. For the same compound, the EC50 in experiment [3] was found to be 112 nM.
In the case of `Cc1nnc(-n2c(=O)n(CC3CC3)c3ccc(S(=O)(=O)NC4(C)CC4)cc32)s1` [Example 82], the figures for the IC50 in experiment [1], in experiment [2] and in experiment [4] were greater than 100000 nM, 193 nM and greater than 150000 nM, respectively. The EC50 in experiment [3] was found to be 155 nM.
Consider `C#CCn1c(=O)n(-c2nnc(C(F)F)s2)c2cc(S(=O)(=O)NC3(CF)CC3)c(F)cc21` [Example 213, 3-[5-(Difluoromethyl)-1,3,4-thiadiazol-2-yl]-6-fluoro-N-[1-(fluoromethyl)cyclopropyl]-2-oxo-1-prop-2-ynyl-benzimidazole-5-sulfonamide], for which the IC50 in experiment [1] was greater than 150000 nM; in experiment [2], 16 nM. The EC50 in experiment [3] was 29 nM.
Regarding `CCn1c(=O)n(-c2nnc(C(F)F)s2)c2cc(S(=O)(=O)NC3(CF)CC3)c(F)cc21` [Example 208, 3-[5-(Difluoromethyl)-1,3,4-thiadiazol-2-yl]-1-ethyl-6-fluoro-N-[1-(fluoromethyl)cyclopropyl]-2-oxo-benzimidazole-5-sulfonamide], the concentration for half-maximal inhibition (IC50) in experiment [1] is greater than 150000 nM; in experiment [2], 29 nM; in experiment [4] it was greater than 150000 nM. For the same compound, in experiment [3], the EC50 is 54 nM.
For `O=c1n(CCF)c2cc(F)c(S(=O)(=O)NC3(CF)CC3)cc2n1-c1nnc(C(F)F)s1` [Example 216, 3-[5-(Difluoromethyl)-1,3,4-thiadiazol-2-yl]-6-fluoro-1-(2-fluoroethyl)-N-[1-(fluoromethyl)cyclopropyl]-2-oxo-benzimidazole-5-sulfonamide], the results for the IC50 in experiment [1] and in experiment [2] were greater than 150000 nM and 33 nM, respectively. Besides, the EC50 in experiment [3] came to 51 nM.
For `Cc1nnc(-n2c(=O)n(Cc3sc(C)nc3C)c3ccc(S(=O)(=O)NC4(C)CC4)cc32)s1` [Example 87], the values for the IC50 in experiment [1], in experiment [2] and in experiment [4] were 76700 nM, 109 nM and greater than 150000 nM, respectively. The EC50 in experiment [3] was determined as 68 nM.
Turning to `CC1(NS(=O)(=O)c2cc3c(cc2F)n(CCF)c(=O)n3-c2nnc(C(F)F)o2)CC1` [Example 211, 3-[5-(Difluoromethyl)-1,3,4-oxadiazol-2-yl]-6-fluoro-1-(2-fluoroethyl)-N-(1-methylcyclopropyl)-2-oxo-benzimidazole-5-sulfonamide], the IC50 in experiment [1] is greater than 150000 nM; in experiment [2], 135 nM. Besides, in experiment [3], the EC50 stood at 401 nM.
In the case of `Cc1nnc(-n2c(=O)n(CCN(C)C)c3ccc(S(=O)(=O)NC4(CF)CC4)cc32)s1` [Example 188, 1-[2-(Dimethylamino)ethyl]-N-[1-(fluoromethyl)cyclopropyl]-3-(5-methyl-1,3,4-thiadiazol-2-yl)-2-oxo-benzimidazole-5-sulfonamide], the IC50 in experiment [2] was 347 nM. The EC50 in experiment [3] is 610 nM.
With `Cc1nnc(-n2c(=O)n(Cc3ncco3)c3ccc(S(=O)(=O)NC4(C)CC4)cc32)s1` [Example 101], the IC50 in experiment [2] is 390 nM. In experiment [3], the EC50 amounted to 246 nM.
With `CC1(NS(=O)(=O)c2ccc3c(c2)N(C(=O)CN2CCOC2=O)CC3)CC1` [Example 14, N-(1-Methylcyclopropyl)-1-[2-(2-oxooxazolidin-3-yl)acetyl]indoline-6-sulfonamide], the IC50 in experiment [1] and in experiment [4] was greater than 150000 nM each time. Further, the EC50 in experiment [3] is 4280 nM.
Turning to `Cn1c(=O)n(-c2ncns2)c2cc(S(=O)(=O)NC3(C)CC3)ccc21` [Example 98], the IC50 in experiment [2] worked out at 694 nM. In experiment [3], the EC50 amounted to 359 nM.
Regarding `Cc1nnc(-n2c(=O)n(CCF)c3ccc(S(=O)(=O)NC4(C)CC4)cc32)o1` [Example 191, 1-(2-Fluoroethyl)-N-(1-methylcyclopropyl)-3-(5-methyl-1,3,4-oxadiazol-2-yl)-2-oxo-benzimidazole-5-sulfonamide], the IC50 in experiment [2] turned out to be 807 nM. For the same compound, the EC50 in experiment [3] turned out to be 967 nM.
On to `Cn1c(=O)n(-c2nnc(C(F)F)s2)c2cc(S(=O)(=O)NC3(C)CC3)ccc21` [Example 79], for which the IC50 is greater than 100000 nM in experiment [1] and greater than 150000 nM in experiment [4]. Further, in experiment [3], the EC50 is 652 nM.
For `Cc1nsc(-n2c(=O)n(CC#N)c3ccc(S(=O)(=O)NC4(C)CC4)cc32)n1` [Example 179, 1-(Cyanomethyl)-N-(1-methylcyclopropyl)-3-(3-methyl-1,2,4-thiadiazol-5-yl)-2-oxo-benzimidazole-5-sulfonamide], the IC50 in experiment [2] came to 1160 nM. Moreover, the EC50 in experiment [3] worked out at 1150 nM.
For `Cc1nnc(-n2c(=O)n(CC3CCCN3C)c3ccc(S(=O)(=O)NC4(C)CC4)cc32)s1` (centres unmarked) [Example 155], in that order: 166 nM and 464 nM.
Taken in the same sequence, the figures for `Cc1nnc(-n2c(=O)n(CCC(N)=O)c3ccc(S(=O)(=O)NC4(C)CC4)cc32)s1` [Example 154] were 9080 nM and 614 nM.
